The source of these data is paper doi:10.1101/2023.11.08.566240v2, “Divergent Protein Kinase A contributes to the regulation of flagellar waveforms in Leishmania mexicana” (biorxiv, 2025).

The structures appear in SMILES notation.

A word on the EC50: it is the concentration giving half of the maximal effect. Low readings indicate greater potency, high ones weaker potency.

The assay concerns the target T1, LmxPKAR1-LmxPKAC1 (mNG::PKAC1) (Leishmania mexicana, UniProt E9AP50).
T1 construct: gene LMXM_13_0160; with protein kinase A catalytic subunit isoform 1
T1 sequence (E9AP50 1-503): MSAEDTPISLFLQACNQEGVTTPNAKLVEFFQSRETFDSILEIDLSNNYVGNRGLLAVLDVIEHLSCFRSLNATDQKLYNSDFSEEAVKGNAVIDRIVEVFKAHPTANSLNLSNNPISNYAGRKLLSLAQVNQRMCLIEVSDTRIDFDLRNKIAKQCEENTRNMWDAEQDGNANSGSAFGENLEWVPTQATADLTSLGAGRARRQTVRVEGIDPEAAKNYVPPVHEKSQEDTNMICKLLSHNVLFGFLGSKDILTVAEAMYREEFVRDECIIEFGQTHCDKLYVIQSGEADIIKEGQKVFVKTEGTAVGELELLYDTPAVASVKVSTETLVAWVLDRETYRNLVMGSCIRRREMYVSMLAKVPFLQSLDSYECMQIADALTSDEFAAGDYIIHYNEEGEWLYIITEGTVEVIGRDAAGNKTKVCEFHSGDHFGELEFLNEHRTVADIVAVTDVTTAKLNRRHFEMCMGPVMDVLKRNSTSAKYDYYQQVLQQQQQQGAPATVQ
T1 sequence (E9B6S9 1-371 partner): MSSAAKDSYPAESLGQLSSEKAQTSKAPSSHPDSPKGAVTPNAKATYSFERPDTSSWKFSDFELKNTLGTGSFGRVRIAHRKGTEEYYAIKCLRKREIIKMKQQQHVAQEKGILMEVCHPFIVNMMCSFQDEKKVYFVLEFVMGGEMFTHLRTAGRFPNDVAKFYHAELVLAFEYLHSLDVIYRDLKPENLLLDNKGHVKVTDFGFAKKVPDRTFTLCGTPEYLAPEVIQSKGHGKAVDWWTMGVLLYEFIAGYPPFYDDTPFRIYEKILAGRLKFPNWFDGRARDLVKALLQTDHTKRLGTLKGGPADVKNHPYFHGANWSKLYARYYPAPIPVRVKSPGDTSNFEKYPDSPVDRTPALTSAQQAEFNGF
In words: release of mNG::PKAC1 fluorescence from flagellar cytoskeletons, microscopy. The class given is biochemical. To be noted: indirect assay of PKAR1 activation; detergent-extracted cytoskeletons in PEME buffer; 10 nM to 10 µM inosine.

In turn, `OC[C@H]1O[C@@H](n2cnc3c(O)ncnc32)[C@H](O)[C@@H]1O` [inosine] showed a half-maximal effective concentration (EC50) of around 9 nM.
